{"source": "ChEMBL document CHEMBL5465560", "about": "“Selectivity Literature for EUbOPEN Chemogenomic Library” (2024)", "key": {"[1]": {"biological_target": "T1, Myosin-IIIb (Homo sapiens) (UniProt Q8WXR4)", "T1 sequence (whole entry)": "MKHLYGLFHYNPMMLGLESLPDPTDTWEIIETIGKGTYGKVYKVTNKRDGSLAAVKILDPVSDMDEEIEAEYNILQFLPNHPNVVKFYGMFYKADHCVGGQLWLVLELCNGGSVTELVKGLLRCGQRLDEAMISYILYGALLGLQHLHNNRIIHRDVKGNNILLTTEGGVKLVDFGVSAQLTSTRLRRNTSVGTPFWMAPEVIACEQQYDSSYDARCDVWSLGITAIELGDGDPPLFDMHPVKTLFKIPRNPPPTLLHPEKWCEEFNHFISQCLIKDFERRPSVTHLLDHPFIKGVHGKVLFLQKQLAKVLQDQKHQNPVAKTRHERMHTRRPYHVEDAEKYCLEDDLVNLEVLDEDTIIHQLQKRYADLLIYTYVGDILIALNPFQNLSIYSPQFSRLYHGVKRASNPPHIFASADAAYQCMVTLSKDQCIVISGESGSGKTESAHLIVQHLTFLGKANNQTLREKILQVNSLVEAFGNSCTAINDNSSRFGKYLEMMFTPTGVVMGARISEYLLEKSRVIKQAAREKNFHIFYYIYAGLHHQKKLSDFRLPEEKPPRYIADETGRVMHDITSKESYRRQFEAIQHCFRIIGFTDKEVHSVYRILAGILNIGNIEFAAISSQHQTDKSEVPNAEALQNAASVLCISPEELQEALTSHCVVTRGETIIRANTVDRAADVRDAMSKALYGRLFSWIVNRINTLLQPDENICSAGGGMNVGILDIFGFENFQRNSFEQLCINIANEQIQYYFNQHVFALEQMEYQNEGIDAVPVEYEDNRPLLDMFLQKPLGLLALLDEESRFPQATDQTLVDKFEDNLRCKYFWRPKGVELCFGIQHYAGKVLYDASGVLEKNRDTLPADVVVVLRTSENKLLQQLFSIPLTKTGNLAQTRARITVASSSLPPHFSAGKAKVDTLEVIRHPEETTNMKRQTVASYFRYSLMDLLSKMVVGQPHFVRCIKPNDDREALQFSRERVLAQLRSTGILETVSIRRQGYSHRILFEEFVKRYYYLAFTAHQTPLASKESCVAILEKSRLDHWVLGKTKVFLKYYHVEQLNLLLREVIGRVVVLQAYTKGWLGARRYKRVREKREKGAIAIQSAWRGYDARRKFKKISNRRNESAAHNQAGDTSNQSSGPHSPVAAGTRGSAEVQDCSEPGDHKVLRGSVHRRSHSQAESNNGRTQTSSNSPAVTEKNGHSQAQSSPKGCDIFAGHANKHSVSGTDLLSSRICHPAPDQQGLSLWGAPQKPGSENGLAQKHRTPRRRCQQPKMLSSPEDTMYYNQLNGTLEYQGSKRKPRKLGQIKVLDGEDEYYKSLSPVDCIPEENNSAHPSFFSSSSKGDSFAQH", "assay": "Selectivity interaction (KinomeScan (DiscoverX)) EUB0000607a MYO3B", "conditions": "at 10 µM"}, "[2]": {"biological_target": "T2, Phosphatidylinositol 5-phosphate 4-kinase type-2 beta (Homo sapiens) (UniProt P78356)", "T2 sequence (whole entry)": "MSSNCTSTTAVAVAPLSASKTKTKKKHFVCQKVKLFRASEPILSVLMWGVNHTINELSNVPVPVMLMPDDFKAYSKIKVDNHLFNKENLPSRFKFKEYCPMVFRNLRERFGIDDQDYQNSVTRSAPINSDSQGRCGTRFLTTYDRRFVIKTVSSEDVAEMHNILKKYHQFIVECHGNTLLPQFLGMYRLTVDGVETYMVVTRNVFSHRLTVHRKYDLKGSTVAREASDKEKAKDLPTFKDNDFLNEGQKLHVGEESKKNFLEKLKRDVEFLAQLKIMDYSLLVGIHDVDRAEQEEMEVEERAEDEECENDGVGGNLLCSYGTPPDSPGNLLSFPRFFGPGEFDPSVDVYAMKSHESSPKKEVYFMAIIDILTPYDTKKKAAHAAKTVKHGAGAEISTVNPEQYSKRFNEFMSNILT", "assay": "Selectivity interaction (ActivX KiNativ screen (kinase selectivity in THP-1 cell lysates)) EUB0000639a PIP4K2B", "assay_type": "subcellular", "conditions": "lysate"}, "[3]": {"biological_target": "T3, Protein kinase C epsilon type (Homo sapiens) (UniProt Q02156)", "T3 sequence (whole entry)": "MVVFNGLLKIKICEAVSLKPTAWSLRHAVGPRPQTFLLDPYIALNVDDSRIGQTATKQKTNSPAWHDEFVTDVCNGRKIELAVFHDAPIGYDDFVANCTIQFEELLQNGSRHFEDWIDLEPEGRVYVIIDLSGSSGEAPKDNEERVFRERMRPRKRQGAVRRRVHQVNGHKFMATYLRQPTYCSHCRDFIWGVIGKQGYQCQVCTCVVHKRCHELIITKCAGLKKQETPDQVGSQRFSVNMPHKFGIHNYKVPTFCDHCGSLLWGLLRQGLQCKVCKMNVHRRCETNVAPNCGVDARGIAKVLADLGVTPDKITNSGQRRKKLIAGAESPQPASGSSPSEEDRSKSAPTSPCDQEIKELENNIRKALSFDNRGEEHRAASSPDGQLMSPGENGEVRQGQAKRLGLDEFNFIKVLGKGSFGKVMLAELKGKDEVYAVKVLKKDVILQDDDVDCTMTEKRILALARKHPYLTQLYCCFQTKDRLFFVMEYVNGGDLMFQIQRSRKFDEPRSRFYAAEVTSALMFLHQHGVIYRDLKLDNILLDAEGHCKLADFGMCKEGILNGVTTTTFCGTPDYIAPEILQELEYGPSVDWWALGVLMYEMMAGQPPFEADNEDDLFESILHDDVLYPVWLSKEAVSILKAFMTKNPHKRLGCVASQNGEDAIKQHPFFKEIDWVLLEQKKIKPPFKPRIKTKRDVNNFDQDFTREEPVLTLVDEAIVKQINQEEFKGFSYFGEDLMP", "assay": "Selectivity interaction (KinomeScan (DiscoverX)) EUB0000092b PRKCE", "conditions": "at 10 µM"}}, "data": [{"smiles": "CNC(=O)Nc1ccc(-c2nc(N3CC4CCC(C3)O4)c3cnn(C4CCC5(CC4)OCCO5)c3n2)cc1", "values": [{"measurement": "% of control", "setting": "[1]", "result": 91, "unit": "%"}]}, {"smiles": "CC[C@@H]1[C@H](F)C(=O)N[C@@H]1COc1nccc2cc(C(N)=O)c(OC)cc12", "note": "[ZIMLOVISERTIB]", "values": [{"measurement": "% of inhibition", "setting": "[2]; at 0.01 µM", "result": 11.7, "unit": "%"}, {"measurement": "% of inhibition", "setting": "[2]; at 0.04 µM", "result": -9.5, "unit": "%"}, {"measurement": "% of inhibition", "setting": "[2]; at 0.2 µM", "result": -6.6, "unit": "%"}, {"measurement": "% of inhibition", "setting": "[2]; at 1 µM", "result": 4, "unit": "%"}, {"measurement": "% of inhibition", "setting": "[2]; at 5 µM", "result": 0.1, "unit": "%"}]}, {"smiles": "CCC(=O)N1CCN(c2ccc(-n3c(=O)ccc4cnc5ccc(-c6cnc7ccccc7c6)cc5c43)cc2C(F)(F)F)CC1", "values": [{"measurement": "% of control", "setting": "[3]", "result": 86, "unit": "%"}]}]}
